Measured values as given in the OPERA property sets (Mansouri et al. 2018).

Settings: not given

Row | SMILES | boiling point [°C] | log10 vapour pressure (mmHg) | melting point [°C] | ready biodegradability | log10 Koc (L/kg) | log10 biodegradation half-life (days)
1 | CC(C)CCSCCC(C)C | 211 | -0.497 | -74.6 | – | – | –
2 | CC1(C)CC(=O)CC(C)(C)N1 | 205 | – | 36 | not readily biodegradable | – | –
3 | c1cncc(-c2ccnc(-c3cccnc3)c2)c1 | – | – | 148 | – | – | –
4 | Brc1cscc1Br | 222 | – | 4.5 | – | – | –
5 | CCCCCCCCC(=O)CCCCCCCC | 252 | – | 53 | – | – | –
6 | c1ccc2sc(SSN3CCOCC3)nc2c1 | – | – | 135 | – | – | –
7 | O=C(O)c1cc(S(=O)(=O)O)ccc1O | – | – | 120 | – | – | –
8 | CCCC(O)/C=C/C=C/C=C/C#CC#CCCCO (centres undefined) | – | – | 54 | – | – | –
9 | CC(=O)Cc1ccco1 | 180 | – | 29 | – | – | –
10 | O=[N+]([O-])CCc1ccccc1 | 250 | – | -23 | – | – | –
11 | Cc1c(COC(=O)[C@@H]2[C@H](/C=C(\Cl)C(F)(F)F)C2(C)C)cccc1-c1ccccc1 (racemic) | – | -6.74 | 69 | – | 5.35 | –
12 | CCC(C)=CCl | 96.5 | – | – | – | – | –
13 | CCOc1cc(OP(=S)(OC)OC)nc(CC)n1 | – | -4.1 | -3.35 | – | – | –
14 | COC(=O)c1ccccc1I | 280 | – | – | – | – | –
15 | FC(F)CC(F)(F)F | 40 | 3.05 | -102 | – | – | –
16 | C[C@H]1CC[C@@H]2C[C@H]1C2(C)C | – | – | -53 | – | – | –
17 | CCCC(CCC)CCC | 158 | – | – | – | – | –
18 | O=C(Cl)C(Cl)Cl | 108 | 1.36 | – | – | – | –
19 | CC(=O)C(C)(C)C(C)=O | 173 | – | 19 | – | – | –
20 | CCCC(C)(C)C | 79.2 | 2.02 | -124 | – | – | 0.845
21 | CCc1ccccc1CC | 184 | 0.0212 | -31.2 | not readily biodegradable | – | –
22 | COc1ccc([N+](=O)[O-])cc1 | 274 | – | 54 | not readily biodegradable | – | –
23 | CC(CCCC(=O)O)C(=O)O (centres undefined) | – | – | 64 | – | – | –
24 | COS(=O)OC | 126 | – | – | – | – | –
25 | C=CC(=O)OCC(CC)(COC(=O)C=C)COC(=O)C=C | – | – | – | not readily biodegradable | – | –
26 | N#Cc1ccccc1[N+](=O)[O-] | – | – | 108 | – | – | –

Row | SMILES | boiling point [°C] | log10 vapour pressure (mmHg) | melting point [°C] | ready biodegradability | log10 Koc (L/kg) | log10 biodegradation half-life (days)
27 | O=C(O)CCc1ccco1 | 229 | – | 58 | – | – | –
28 | O=S(=O)(O)c1ccc(Nc2ccccc2)cc1 | – | – | 206 | – | – | –
29 | FC1(F)C(Cl)=C(Cl)C(F)(F)C1(F)F | 90.7 | – | -106 | – | – | –
30 | CCC(=O)C(C)C | 114 | 1.26 | – | – | – | –
31 | O=C(O)c1cc(Cl)cc(Cl)c1O | – | – | 220 | – | – | –
32 | CCCCCCCCCCCCCCCCC | 302 | -3.64 | 22 | readily biodegradable | – | 1.3
33 | O=C(Nc1ccccc1)OCC1(COC(=O)Nc2ccccc2)CCCC1 | – | – | 152 | – | – | –
34 | CCCCc1ccc(N)cc1 | 261 | – | – | – | – | –
35 | C[C@@H]1C[C@@]2(C)[C@@H](CC[C@@H]3[C@@H]2CC[C@]2(C)[C@@H](O)CC[C@@H]32)CC1=O | – | – | 151 | – | – | –
36 | O=C1c2ccccc2C(=O)C1c1ccc2ccccc2n1 | – | – | 241 | – | – | –
37 | NC(=O)Nc1ccccc1 | 238 | – | 147 | not readily biodegradable | 1.35 | –
38 | C=C(C)c1ccc(C)cc1 | 185 | – | -20 | – | – | –
39 | CC(=O)Nc1ccc(-c2ccc(N)cc2)cc1 | – | – | – | not readily biodegradable | – | –
40 | CCCCCCCCCCCCCCCCCCOO | – | – | 49.5 | – | – | –
41 | N=C(N)NC(N)=O | – | – | 105 | – | – | –
42 | Cc1c(N)c(=O)n(-c2ccccc2)n1C | – | – | 109 | – | – | –
43 | CCS(=O)(=O)CCn1c([N+](=O)[O-])cnc1C | – | – | 128 | – | – | –
44 | CC(C)C(=O)C(=O)C(C)C | 144 | – | – | – | – | –
45 | CCOC(=O)Nc1cccc(OC(=O)Nc2ccccc2)c1 | – | -8.52 | 120 | – | 3.18 | –
46 | O=C(c1ccccc1)C(Cl)c1ccccc1 (centres undefined) | – | – | 68.5 | – | – | –
47 | CCCCCCCOC(=O)CC | 210 | – | -50.9 | – | – | –
48 | O=C(c1ccccc1)c1cccc([N+](=O)[O-])c1 | – | – | 95 | – | – | –
49 | C[C@@H](CN)c1ccccc1 | 210 | – | – | – | – | –
50 | C[C@]12N[C@H](Cc3ccccc31)c1ccccc12 | – | – | 68.8 | – | – | –
51 | CC=CCc1ccccc1 | 176 | – | – | – | – | –
52 | COc1ccc(Br)cc1 | 215 | -0.692 | 13.5 | – | – | –

Row | SMILES | boiling point [°C] | log10 vapour pressure (mmHg) | melting point [°C] | ready biodegradability | log10 Koc (L/kg) | log10 biodegradation half-life (days)
53 | CC/C=C/CCCCC | 148 | – | – | – | – | –
54 | C=C(C)C=C(C)C | 93.2 | – | -114 | – | – | –
55 | CCCCCCCCCCF | 186 | -0.203 | -35 | – | – | –
56 | CCOC(=O)c1cc([N+](=O)[O-])cc([N+](=O)[O-])c1 | – | – | 94 | – | 2.74 | –
57 | Cc1ccc(Br)cc1Br | – | – | -9.7 | – | – | –
58 | CCOC(O)C(Cl)(Cl)Cl (centres undefined) | 116 | – | 56.5 | – | – | –
59 | CC(C)Nc1nc(Cl)nc(NC2CC2)n1 | – | -6.52 | 167 | – | – | –
60 | CCCO[Si](OCCC)(OCCC)OCCC | 226 | – | – | – | – | –
61 | O=C(c1ccccc1)C(F)(F)F | 153 | – | -40 | – | – | –
62 | CCC1=CCCC1 | 106 | – | -118 | – | – | –
63 | C=C(C)C1CC=C(C)C(=O)C1 (centres undefined) | 230 | – | – | – | – | –
64 | O=C1C(O)=C(Cl)C(=O)c2ccccc21 | – | – | 216 | – | – | –
65 | OCCCc1cccnc1 | 284 | – | – | – | – | –
66 | CCCC(=O)Nc1ccc(OCC(O)CNC(C)C)c(C(C)=O)c1 (centres undefined) | – | – | 121 | – | – | –
67 | CC(C)NCC(O)c1ccc(NS(C)(=O)=O)cc1 (centres undefined) | – | – | 207 | – | – | –
68 | CC(=O)O[C@]1(C(C)=O)CC[C@H]2[C@@H]3C=C(Cl)C4=CC(=O)CC[C@]4(C)[C@H]3CC[C@@]21C | – | – | 213 | – | – | –
69 | CC(=O)NBr | – | – | 104 | – | – | –
70 | O=c1oc2ccccc2c(O)c1C1CC(c2ccc(OCc3ccc(C(F)(F)F)cc3)cc2)Cc2ccccc21 (centres undefined) | – | – | 167 | – | – | –
71 | CC(C)CC(O)CC(C)C | 174 | -0.519 | – | – | – | –
72 | Cc1cc(C2CC2)nc(Nc2ccccc2)n1 | – | -5.43 | 75.9 | – | – | –
73 | C1SSCSSS1 | – | – | 60.5 | – | – | –
74 | CCCc1cc(=O)[nH]c(=S)[nH]1 | – | – | 219 | not readily biodegradable | – | –
75 | N#Cc1nn(-c2c(Cl)cc(C(F)(F)F)cc2Cl)c(N)c1S(=O)C(F)(F)F (centres undefined) | – | -8.56 | 200 | – | – | –
76 | N#CCc1c[nH]c2ccccc12 | – | – | 36 | – | – | –
77 | CCCCOC(=O)C1=CC(=O)CC(C)(C)O1 | 263 | -3.52 | – | – | – | –
78 | CC(=O)COc1ccccc1 | 230 | – | – | – | – | –

Row | SMILES | boiling point [°C] | log10 vapour pressure (mmHg) | melting point [°C] | ready biodegradability | log10 Koc (L/kg) | log10 biodegradation half-life (days)
79 | CC(C)COC(=O)Cc1ccccc1 | 247 | – | – | – | – | –
80 | CCCCCCCCCCCCCC(N)=O | – | – | 104 | – | – | –
81 | N#Cc1cccc([N+](=O)[O-])c1 | – | – | 116 | – | – | –
82 | CCCCCCCCCCCBr | – | -1.92 | -9 | – | – | –
83 | CCOC(=O)c1ccc(C)cc1 | 232 | – | – | – | 2.59 | –
84 | O=C(Nc1ccc(Br)cc1)c1cc(Br)cc(Br)c1O | – | – | 227 | – | – | –
85 | CCCN(CC1CC1)c1c([N+](=O)[O-])cc(C(F)(F)F)cc1[N+](=O)[O-] | – | -4.2 | 32.3 | – | 4.01 | –
86 | C[Si](C)(C)OS(=O)(=O)C(F)(F)F | 140 | – | – | – | – | –
87 | ClC(Br)(Br)Br | 158 | – | 55 | – | – | –
88 | CCCNC(C)C | 96.9 | – | – | – | – | –
89 | CCCCCOC(=O)c1ccccc1O | 270 | – | – | – | – | –
90 | CNC[C@H](O)c1ccccc1 | – | – | 44 | – | – | –
91 | COc1cccc(OC)c1 | 218 | – | -52 | readily biodegradable | – | –
92 | Clc1cc(Cl)c2oc3c(Cl)c(Cl)cc(Cl)c3c2c1 | – | – | 204 | – | – | –
93 | O=[N+]([O-])c1ccc2[nH]ccc2c1 | – | – | 141 | – | – | –
94 | C=COC(=O)CCCCC | – | – | – | readily biodegradable | – | –
95 | C[Si](C)(Cl)C(Cl)Cl | 149 | – | -48 | – | – | –
96 | O=C(O)C(O)c1ccc(Br)cc1 (centres undefined) | – | – | 118 | – | – | –
97 | COc1ccc(O)c(C=O)c1 | 248 | – | 4 | – | – | –
98 | Cc1cccc(C)c1N(C)C | 196 | – | -36 | – | – | –
99 | O=C(O)COc1c(Cl)ccc(Cl)c1Cl | – | – | 148 | – | – | –
100 | c1ccc2nc(-c3ccc4ccccc4n3)ccc2c1 | – | – | 194 | – | 4.02 | –
101 | CCN(C(=O)Oc1cccc(NC(=O)OC(C)C)c1)c1ccccc1 | – | – | 110 | – | – | –
102 | CCCCCCC(C)Cl (centres undefined) | 172 | 0.136 | – | – | – | –

Same assay, conditions: fish

Row | SMILES | log10 BCF | log10 biotransformation half-life (days)
103 | COc1ccc([N+](=O)[O-])cc1 | 1.08 | -0.95
104 | N#Cc1nn(-c2c(Cl)cc(C(F)(F)F)cc2Cl)c(N)c1S(=O)C(F)(F)F (centres undefined) | – | -0.21
